# Measured values as given in patent publication EP1543832A2, “Use of trans-4[4-(3-chloro-4-methoxy-benzylamino) benzothieno[2,3-d]pyrimidin-2-yl]-cyclohexanecarboxylic acid in the treatment of extrapyramidal movement disorders” (MERCK PATENT GmbH, priority 2003, dated 2005).
# Key:
# Type in all cases: in vivo
# [1] = test system: Parkinsonian cynomolgus monkey; test: MPTP Parkinsonian cynomolgus monkey, Laval University Disability Scale
# Excerpt: A typical animal model for idiopathic Parkinson's disease is the Parkinsonian cynomolgus monkey according to P.J. Blanchet et al., Exp. Neurology 1998; 153: 214-222. Monkeys render parkinsonian by repeated injections of 1-methyl-4-phenyl-1,2,3,6-tetrahydropyridine (MPTP).
# Parkinsonian symptoms are qualitatively assessed by the use of the Laval University Disability Scale (B. Gomez-Mancilla et al., 1993; Mov. Disord. 8: 144-150) measuring the following symptoms: posture, mobility, climbing, gait, holding food, vocalizing, grooming, social interaction.
# [2] = test system: neuroleptics-induced muscle rigidity in rats; test: Neuroleptics-induced muscle rigidity (haloperidol challenge); settings: resistance to passive flexion and extension of the hind limb
# Excerpt: A typical animal model is neuroleptics-induced muscle rigidity in rats according to S. Wolfarth et al., Arch. Pharmacol. 1992; 345: 209-212. Rats are challenged with the conventional neuroleptic drug haloperidol which enhances muscle tone. Muscle tone is electromechanically measured as the resistence to passive flexion and extension of the hind limb. Trans-4-[4-(3-chloro-4-methoxybenzylamino)-benzothieno-[2,3-d]pyrimidin-2-yl]cyclo-hexanecarboxylic acid or a physiologically acceptable salt thereof thereof decrease the mucle tone enhanced by haloperidol.
# [3] = test system: neuroleptics sensitized monkey; test: Neuroleptics sensitized monkey, haloperidol challenge; settings: given after haloperidol challenge; scoring system
# Excerpt: Another typical animal model is the neuroleptics sensitized monkey according to D.E. Casey, Psychopharmacology, 1996; 124: 134-140. Monkeys treated repeatedly with conventional neuroleptics are highly sensitive to a subsequent challenge dose of neuroleptic drugs. When challenged, the monkeys immediately show extrapyramidal motor side effects such as dystonia, dyskinesias, akathisia, and bradykinesia which are rated by a scoring system. The conventional neuroleptic drug haloperidol is given as a challenge.
# [4] = test system: patients with Huntington's disease; test: Placebo-controlled add-on trial in Huntington's disease; settings: AIMS, UHDRS, video recordings; add-on 2.5 to 20 mg b.i.d. versus placebo
# Method: A typical trial to establish the effect of the compounds according to the invention on chorea, voluntary motor performance, and functional disability in patients with Huntington's disease encompasses 32 genetically diagnosed patients. Trans-4-[4-(3-chloro-4-methoxybenzylamino)-benzothieno-[2,3-d]pyrimidin-2-yl]cyclohexanecarboxylic acid sodium or ethanolamine salt or placebo is administered as "add on" to the conventional treatment, which is maintained unchanged during the whole study. The dose of blinded medication is titrated over a period of 3 weeks in a range from 2.5 to 20 mg b.i.d. Then the medication is held constant for 1 week. Assessments are performed in the week before and at the last day of the trial. Chorea is scored using the abnormal involuntary movement scale (AIMS, W. Guy, in: ECDEU assessment manual. Rockville MD: US dept. of health, education and welfare, 1976: 534-537), the unified Huntington's disease rating scale (UHDRS, Huntington study group, 1996, Movement Disord, 11: 136-42), and judgement of video recordings. Voluntary motor performance is assessed using the UHDRS motor scale. Patients and their partners complete a questionnaire regarding functional disability.
# [5] = test system: mutant dystonic hamster; test: Mutant dystonic hamster, scored dystonic attacks; settings: scoring system
# Excerpt: A typical animal model is the mutant dystonic hamster according to A. Richter and W. Löscher, Prog. Neurobiol. 1998; 54: 633-677. In this genetically dystonic hamsters, dystonic attacks are provoked by taking the animal from the home cage and placing it on a balance. The dystonic syndrome consists of a sequence of abnormal movements, and the severity of the single symptoms is rated by a scoring system.
structure (smiles),measurement,setting,value
"COc1ccc(CNc2nc([C@H]3CC[C@H](C(=O)O)CC3)nc3sc4ccccc4c23)cc1Cl [trans-4-[4-(3-chloro-4-methoxybenzylamino)-benzothieno-[2,3-d]pyrimidin-2-yl]cyclohexanecarboxylic acid]",parkinsonian symptoms,[1]; Laval University Disability Scale,reduced all the parkinsonian symptoms
same,total activity,[1]; MPTP monkeys,increased
same,muscle tone enhanced by haloperidol,[2],decrease
same,extrapyramidal motor side effects,[3],dose-dependently reduce
same,voluntary and involuntary motor performance,[4],significant improvement
same,severity of dystonic symptoms,[5],dose-dependently reduce
